This is an account of results in patent US20070134202A1, “Cancer gene therapeutic drug” (priority 2003, published 2007).

Holding throughout (format): cell-based
Assay [1] relates to Ovarian cancer cells HEY. As to the kind of experiment: Influence of Fe and ALA on the proliferation inhibitory effect of adenovirus AdE3-1A1.3B (FIG. 15-17). As to the method: Ovarian cancer cells HEY were cultured in 12-well plate at a rate of 10,000 cells/well and FeSO4 was added at a concentration of 50 μg/ml, 5 μg/ml, 0.5 μg/ml or 0 μg/ml on the following day and the cytolysis type adenovirus AdE3-1A1.3B was added to all wells. The proliferation inhibitory effect of the adenovirus was evaluated by IC50 after five days.
Next, the ovarian cancer cell line HEY was cultured in a 12-well plate at a rate of 10,000 cells/well and 5-aminolevulinic acid (ALA) was added at a concentration of 50 μg/ml, 5 μg/ml, 0.5 μg/ml or 0 μg/ml on the following day and the cytolysis type adenovirus AdE3-1A1.3B was added to all wells. The proliferation inhibitory effect of the adenovirus was evaluated by IC50 after five days.
Furthermore, the ovarian cancer cell line HEY was cultured in a 12-well plate at a rate of 10,000 cells/well and FeSO4 was added at a concentration of 50 μg/ml, 5 μg/ml, 0.5 μg/ml or 0 μg/ml on the following day. In addition, the cytolysis type adenovirus AdE3-1A1.3B and 50 μg/ml of 5-aminolevulinic acid (ALA) were added to each well. Only the adenovirus was added to a control. The proliferation inhibitory effect of the adenovirus was evaluated by IC50 after five days.

Assay [2] concerns cancer cells. Put plainly: β-gal assay of adenovirus infectivity. An excerpt:
(§1) That is, ALA and Fe can enhance antitumor effect, because they can increase the infectivity of adenovirus to cancer cells and the amount of virus production within the cells.

For assay [3], the system named is cancer cells. Put plainly: PFU assay of adenovirus production.
Source text: as §1

On to `NCC(=O)CCC(=O)O` [ALA, 5-aminolevulinic acid, reference compound], for which the “proliferation inhibitory effect to that of only adenovirus administration” value in assay [1] (50 μg/ml of ALA and AdE3-1A1.3B, IC50 (vp/cell) after five days) is reported as “about 100 fold”. Moreover, the infectivity of adenovirus entry in assay [2] was “increased infectivity of adenovirus”. The “amount of adenovirus production” value in assay [3] is given as “increased amount of adenovirus production”.

`[Fe]` [Fe]: the infectivity of adenovirus result in assay [2] was “increased infectivity of adenovirus”. Also, in assay [3], the “amount of adenovirus production” value is given as “increased amount of adenovirus production”.

Take ferrous sulfate [FeSO4]: the “proliferation inhibitory effect to that of only adenovirus administration” value in assay [1] (0.5 μg/ml of FeSO4, 50 μg/ml of ALA and AdE3-1A1.3B, after five days) is listed as “about 200 fold”; in assay [1] (5 μg/ml of FeSO4, 50 μg/ml of ALA and AdE3-1A1.3B, after five days) it was “about 700 fold”; in assay [1] (5 μg/ml of FeSO4 and AdE3-1A1.3B, IC50 (vp/cell) after five days), “about 8 fold”; in assay [1] (50 μg/ml of FeSO4, 50 μg/ml of ALA and AdE3-1A1.3B, after five days) it was “about 1,000 fold”; in assay [1] (50 μg/ml of FeSO4 and AdE3-1A1.3B, IC50 (vp/cell) after five days), “about 20 fold”.
